Reference: article PMC10910009, “Comparing ATPase activity of ATP-binding cassette subfamily C member 4, lamprey CFTR, and human CFTR using an antimony-phosphomolybdate assay” (Frontiers in Pharmacology, 2024)

T1: Lp-CFTR (Petromyzon marinus, UniProt A0A5Q0TXR8)
T1 construct: lamprey CFTR in pFastBac vector with 6xHis tag; baculovirus/Sf9 crude plasma membranes, not purified; PKA-phosphorylated
T1 sequence (A0A5Q0TXR8 1-1466): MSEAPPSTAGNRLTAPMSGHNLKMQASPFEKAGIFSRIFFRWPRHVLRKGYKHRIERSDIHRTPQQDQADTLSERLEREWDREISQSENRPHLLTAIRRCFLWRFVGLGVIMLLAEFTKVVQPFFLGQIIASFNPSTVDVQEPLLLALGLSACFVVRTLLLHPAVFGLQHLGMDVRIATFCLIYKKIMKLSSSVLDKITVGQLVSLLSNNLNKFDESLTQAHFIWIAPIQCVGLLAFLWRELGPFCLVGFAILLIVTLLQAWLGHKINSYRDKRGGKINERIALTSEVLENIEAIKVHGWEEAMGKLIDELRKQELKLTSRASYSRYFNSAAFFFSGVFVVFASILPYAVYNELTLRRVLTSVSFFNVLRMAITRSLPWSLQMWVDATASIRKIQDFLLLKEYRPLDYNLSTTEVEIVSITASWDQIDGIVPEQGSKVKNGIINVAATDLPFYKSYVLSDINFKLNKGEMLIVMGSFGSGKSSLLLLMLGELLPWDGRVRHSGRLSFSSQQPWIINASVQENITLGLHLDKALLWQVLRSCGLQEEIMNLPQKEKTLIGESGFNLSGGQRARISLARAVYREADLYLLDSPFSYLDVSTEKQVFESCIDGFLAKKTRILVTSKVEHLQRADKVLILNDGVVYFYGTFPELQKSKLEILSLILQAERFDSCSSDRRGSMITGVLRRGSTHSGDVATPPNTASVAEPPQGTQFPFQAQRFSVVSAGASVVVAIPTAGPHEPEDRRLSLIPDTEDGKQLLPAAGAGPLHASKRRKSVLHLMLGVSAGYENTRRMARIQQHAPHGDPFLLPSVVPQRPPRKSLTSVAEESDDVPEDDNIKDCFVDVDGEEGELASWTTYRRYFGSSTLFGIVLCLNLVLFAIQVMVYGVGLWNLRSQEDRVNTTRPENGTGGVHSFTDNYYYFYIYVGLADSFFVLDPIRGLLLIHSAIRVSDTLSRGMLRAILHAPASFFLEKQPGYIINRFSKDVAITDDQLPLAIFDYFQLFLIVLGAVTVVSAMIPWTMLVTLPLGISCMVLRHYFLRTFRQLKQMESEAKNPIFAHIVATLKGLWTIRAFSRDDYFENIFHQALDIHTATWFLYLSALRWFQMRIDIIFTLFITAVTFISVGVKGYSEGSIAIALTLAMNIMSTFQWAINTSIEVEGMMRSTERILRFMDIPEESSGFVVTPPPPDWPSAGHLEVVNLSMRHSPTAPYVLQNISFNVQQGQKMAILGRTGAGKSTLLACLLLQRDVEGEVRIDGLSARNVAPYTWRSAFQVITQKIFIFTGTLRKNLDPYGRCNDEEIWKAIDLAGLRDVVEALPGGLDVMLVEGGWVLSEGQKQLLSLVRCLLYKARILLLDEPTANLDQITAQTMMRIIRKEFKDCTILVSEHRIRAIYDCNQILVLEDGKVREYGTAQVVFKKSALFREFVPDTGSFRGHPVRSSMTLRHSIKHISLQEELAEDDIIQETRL

B1: hABCC4 (Homo sapiens) (protein)
chain: MLPVYQEVKPNPLQDANLCSRVFFWWLNPLFKIGHKRRLEEDDMYSVLPEDRSQHLGEELQGFWDKEVLRAENDAQKPSLTRAIIKCYWKSYLVLGIFTLIEESAKVIQPIFLGKIINYFENYDPMDSVALNTAYAYATVLTFCTLILAILHHLYFYHVQCAGMRLRVAMCHMIYRKALRLSNMAMGKTTTGQIVNLLSNDVNKFDQVTVFLHFLWAGPLQAIAVTALLWMEIGISCLAGMAVLIILLPLQSCFGKLFSSLRSKTATFTDARIRTMNEVITGIRIIKMYAWEKSFSNLITNLRKKEISKILRSSCLRGMNLASFFSASKIIVFVTFTTYVLLGSVITASRVFVAVTLYGAVRLTVTLFFPSAIERVSEAIVSIRRIQTFLLLDEISQRNRQLPSDGKKMVHVQDFTAFWDKASETPTLQGLSFTVRPGELLAVVGPVGAGKSSLLSAVLGELAPSHGLVSVHGRIAYVSQQPWVFSGTLRSNILFGKKYEKERYEKVIKACALKKDLQLLEDGDLTVIGDRGTTLSGGQKARVNLARAVYQDADIYLLDDPLSAVDAEVSRHLFELCICQILHEKITILVTHQLQYLKAASQILILKDGKMVQKGTYTEFLKSGIDFGSLLKKDNEESEQPPVPGTPTLRNRTFSESSVWSQQSSRPSLKDGALESQDTENVPVTLSEENRSEGKVGFQAYKNYFRAGAHWIVFIFLILLNTAAQVAYVLQDWWLSYWANKQSMLNVTVNGGGNVTEKLDLNWYLGIYSGLTVATVLFGIARSLLVFYVLVNSSQTLHNKMFESILKAPVLFFDRNPIGRILNRFSKDIGHLDDLLPLTFLDFIQTLLQVVGVVSVAVAVIPWIAIPLVPLGIIFIFLRRYFLETSRDVKRLESTTRSPVFSHLSSSLQGLWTIRAYKAEERCQELFDAHQDLHSEAWFLFLTTSRWFAVRLDAICAMFVIIVAFGSLILAKTLDAGQVGLALSYALTLMGMFQWCVRQSAEVENMMISVERVIEYTDLEKEAPWEYQKRPPPAWPHEGVIIFDNVNFMYSPGGPLVLKHLTALIKSQEKVGIVGRTGAGKSSLISALFRLSEPEGKIWIDKILTTEIGLHDLRKKMSIIPQEPVLFTGTMRKNLDPFNEHTDEELWNALQEVQLKETIEDLPGKMDTELAESGSNFSVGQRQLVCLARAILRKNQILIIDEATANVDPRTDELIQKKIREKFAHCTVLTIAHRLNTIIDSDKIMVLDSGRLKEYDEPYVLLQNKESLFYKMVQQLGKAEAAALTETAKQVYFKRNYPHIGHTDHMVTNTSNGQPSTLTIFETAL
notes: human ABCC4 in pFastBac vector with 6xHis tag; baculovirus/Sf9 crude plasma membranes, not purified

Assays:
[1] = molecular target: T2, hCFTR (Homo sapiens, UniProt P13569); conditions: Sf9 crude membranes, control membranes subtracted; 1 mM Na2ATP, 5 mM MgCl2, PKA, pH 7.4, 30 °C, 1 h
T2 construct: gene CFTR

[2] = molecular target: T1, Lp-CFTR; assay: antimony-phosphomolybdate Pi release (ATPase); type: biochemical; conditions: Sf9 crude membranes, control membranes subtracted; 1 mM Na2ATP, 5 mM MgCl2, PKA, pH 7.4, 30 °C, 1 h
[3] = substrate: Nc1ncnc2c1ncn2[C@@H]1O[C@H](COP(=O)(O)OP(=O)(O)OP(=O)(O)O)[C@@H](O)[C@H]1O; assay: antimony-phosphomolybdate Pi release (ATPase), Michaelis-Menten fit; type: biochemical, Homo sapiens; conditions: printed as Kd but from Michaelis-Menten fit of ATPase activity, Sf9 crude membranes, control membranes subtracted, 5 mM MgCl2, pH 7.4, 37 °C, 20 min, no PKA, no transport substrate

T2 sequence (P13569 whole entry): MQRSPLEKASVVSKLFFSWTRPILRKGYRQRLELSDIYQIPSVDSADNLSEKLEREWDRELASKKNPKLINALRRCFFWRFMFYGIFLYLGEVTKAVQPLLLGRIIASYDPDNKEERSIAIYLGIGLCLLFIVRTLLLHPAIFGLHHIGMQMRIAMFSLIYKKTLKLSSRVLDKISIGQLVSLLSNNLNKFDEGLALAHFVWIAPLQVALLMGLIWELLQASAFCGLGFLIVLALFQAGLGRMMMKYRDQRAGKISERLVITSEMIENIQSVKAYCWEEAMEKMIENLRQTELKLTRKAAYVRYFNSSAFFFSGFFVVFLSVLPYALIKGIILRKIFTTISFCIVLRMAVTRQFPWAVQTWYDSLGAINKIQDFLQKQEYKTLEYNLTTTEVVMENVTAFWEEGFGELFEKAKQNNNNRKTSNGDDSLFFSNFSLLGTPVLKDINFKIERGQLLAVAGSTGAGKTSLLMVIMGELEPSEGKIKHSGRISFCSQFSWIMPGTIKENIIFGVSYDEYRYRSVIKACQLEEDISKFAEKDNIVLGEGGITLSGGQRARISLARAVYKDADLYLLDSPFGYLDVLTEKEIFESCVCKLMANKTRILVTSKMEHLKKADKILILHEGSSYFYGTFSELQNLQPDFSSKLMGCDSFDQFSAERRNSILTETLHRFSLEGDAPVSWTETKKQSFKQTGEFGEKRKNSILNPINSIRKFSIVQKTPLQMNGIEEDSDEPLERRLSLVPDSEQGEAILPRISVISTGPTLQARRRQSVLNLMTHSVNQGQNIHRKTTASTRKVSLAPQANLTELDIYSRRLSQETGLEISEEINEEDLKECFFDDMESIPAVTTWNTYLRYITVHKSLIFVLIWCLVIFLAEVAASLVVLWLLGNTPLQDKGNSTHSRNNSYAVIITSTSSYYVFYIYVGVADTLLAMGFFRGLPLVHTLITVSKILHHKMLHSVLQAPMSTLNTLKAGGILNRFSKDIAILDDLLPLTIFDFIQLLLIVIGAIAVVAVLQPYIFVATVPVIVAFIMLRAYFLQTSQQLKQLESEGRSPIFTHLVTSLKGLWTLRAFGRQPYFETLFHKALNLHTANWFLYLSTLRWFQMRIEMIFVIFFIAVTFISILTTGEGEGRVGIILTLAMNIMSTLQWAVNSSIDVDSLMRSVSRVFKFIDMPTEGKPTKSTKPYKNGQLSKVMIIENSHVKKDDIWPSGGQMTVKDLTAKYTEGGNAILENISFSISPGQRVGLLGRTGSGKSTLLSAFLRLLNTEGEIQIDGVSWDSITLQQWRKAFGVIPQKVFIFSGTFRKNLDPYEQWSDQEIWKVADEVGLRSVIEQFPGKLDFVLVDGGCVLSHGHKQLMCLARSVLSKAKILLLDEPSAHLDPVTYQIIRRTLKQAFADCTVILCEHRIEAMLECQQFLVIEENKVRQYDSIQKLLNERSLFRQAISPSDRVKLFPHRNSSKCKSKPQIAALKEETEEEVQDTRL

| Molecule | antimony-phosphomolybdate Pi release (ATPase) [1] | antimony-phosphomolybdate Pi release (ATPase) [2] | Km [3] |
| --- | --- | --- | --- |
| Nc1ncnc2c1ncn2[C@@H]1O[C@H](COP(=O)(O)OP(=O)(O)OP(=O)(O)O)[C@@H](O)[C@H]1O [ATP] | hCFTR exhibited higher ATPase activity in high PKA compared to low PKA conditions | Lp-CFTR exhibited higher ATPase activity in high PKA compared to low PKA conditions |  |
| B1 |  |  | 550 ± 280 µM |
